Key:
NRAMP2 = test: Intestinal NRAMP2 mRNA in rats of ACD Series 2 (microarray); assay type: in vivo, rat
Method: (§1) At week 6 following administration of compound A in anemic animals (40 mg/kg, twice a week), microarray analysis was performed to examine expression of genes encoding proteins involved with iron transport and absorption in intestine. Microarray analysis was performed using methods described above, using The Rat Genome 230A array (Affymetirx), which represents all sequence in the Rat Unigene database build 99 (National Center for Biotechnology Information, Bethesda, Md.), including approximately 4,699 well-characterized rat genes and approximately 10,467 EST sequences and approximately 700 non-EST sequences.

sproutin = test: Intestinal sproutin mRNA in rats of ACD Series 2 (microarray); assay type: in vivo, rat
Method: as §1

Ceruloplasmin = Ceruloplasmin mRNA expression in mouse kidney (microarray); assay type: in vivo; conditions: single dose 100 mg/kg
Method: Compounds were generally administered orally by gavage or IV administration. Animals treated by oral gavage received a 4-10 ml/kg volume of either 0.5% carboxymethyl cellulose (CMC; Sigma-Aldrich, St. Louis Mo.) with or without 0.1% Polysorbate 80 (0 mg/kg/day) or varying doses of a compound of the present invention (e.g., a HIF prolyl hydroxylase inhibitor) in 0.5% CMC, with or without 0.1% Polysorbate 80, using various dosing regimens. Blood samples were collected at appropriate intervals during treatment from, e.g., tail vein (rats), or abdominal vein or cardiocentesis (mice or rats). Generally, animals were anesthetized with isoflurane and blood samples were collected into MICROTAINER serum separator tubes (Becton-Dickinson, Franklin Lakes N.J.). For measurement of serum components, the tubes were incubated at room temperature for 30 minutes, and then centrifuged at 8,000 rpm at 4° C. for 10 minutes. The serum fraction was then processed and analyzed for the presence of specific components, e.g., serum iron (assay performed by Quality Clinical Labs, Mountain View, Calif.). For determination of hematocrit, blood samples were collected into MICROTAINER EDTA-2K tubes (Becton-Dickinson); EDTA-blood was then drawn into 75 mm×1.1-1.2 mm I.D. capillary tubes (Chase Scientific Glass, Inc., Rockwood Tenn.) to approximately % length, one end of the tube was sealed with CRITOSEAL sealant (Sherwood Medical Company), and the tubes were centrifuged in a J-503M MICROHEMATOCRIT centrifuge (Jorgensen Laboratories, Inc., Loveland Colo.) at 12,000 rpm for 5 minutes. Hematocrit was read against a reader card. When indicated, complete blood count (CBC) analysis, including blood hemoglobin level, reticulocyte number, and hematocrit, was performed by Quality Clinical Labs (Mountain View, Calif.).
Swiss Webster male mice were treated as described above with a single dose of 0.5% CMC (Sigma-Aldrich) (0 mg/kg) or 100 mg/kg compound A. At 4, 8, 16, 24, 48, or 72 hours post-administration, animals were anesthetized, sacrificed, and tissue samples of kidney, liver, brain, lung, and heart were isolated and stored in RNALATER solution (Ambion) at −80° C. Alternatively, animals were treated to 4 consecutive daily doses of 0.5% CMC (0 mg/kg/day), 7.5 mg/ml compound A in 0.5% CMC (30 mg/kg/day), or 25 mg/ml compound A in 0.5% CMC (100 mg/kg/day). Four hours after administration of the final dose, animals were anesthetized, sacrificed, and approximately 150 mg of liver and each kidney were isolated and stored in RNALATER solution (Ambion) at −20° C.
RNA isolation was carried out using the following protocol. A section of each organ was diced, 875 μl of RLT buffer (RNEASY kit; Qiagen Inc., Valencia Calif.) was added, and the pieces were homogenized for about 20 seconds using a rotor-stator POLYTRON homogenizer (Kinematica, Inc., Cincinnati Ohio). The homogenate was micro-centrifuged for 3 minutes to pellet insoluble material, the supernatant was transferred to a new tube and RNA was isolated using an RNEASY kit (Qiagen) according to the manufacturer's instructions. The RNA was eluted into 80 μL of water and quantitated with RIBOGREEN reagent (Molecular Probes, Eugene Oreg.). The absorbance at 260 and 280 nm was measured to determine RNA purity and concentration.
Alternatively, tissue samples were diced and homogenized in TRIZOL reagent (Invitrogen Life Technologies, Carlsbad Calif.) using a rotor-stator POLYTRON homogenizer (Kinematica). Homogenates were brought to room temperature, 0.2 volumes chloroform was added, and samples were mixed vigorously. Mixtures were incubated at room temperature for several minutes and then were centrifuged at 12,000 g for 15 min at 4° C. The aqueous phase was collected and 0.5 volumes of isopropanol were added. Samples were mixed, incubated at room temperature for 10 minutes, and centrifuged for 10 min at 12,000 g at 4° C. […]

VCAM-1 = test: TNF-α induced VCAM-1 expression in HUVEC; assay type: cell-based, human; conditions: TNF-α 1 ng/ml, 1 day
Source text: Endothelial cell adhesiveness for lymphocytes occurs, in part, by endothelial cell expression of vascular cell adhesion molecule (VCAM)-1. VCAM-1 expression in endothelial cells is induced by various inflammatory cytokines, such as TNF-α. To investigate the effect of HIF prolyl hydroxylase inhibition on TNF-α induced VCAM-1 expression, HUVEC (human umbilical vein endothelial cells) were stimulated with TNF-α in the absence or presence of various concentrations of compound B or compound C for 1 day. VCAM expression was then measured.
(§2) Endothelial E-selectin belongs to the selectin family of cellular adhesion molecules mediating the initial attachment of leukocytes to vascular endothelial cells in inflammatory events. IL-1β, TNF-α, and lipopolysaccharides each induce the expression of E-selectin. (See, e.g., Bevilacqua et al. (1987) Proc Natl Acad Sci USA 84:9238-9242 and Bevilacqua and van Furth (1993) J Leukoc Biol 54:363-378.) To investigate the effect of HIF prolyl hydroxylase inhibition on TNF-α induced E-selectin expression, HUVECs were stimulated with 1 ng/ml TNF-α in the absence or presence of various concentrations of compound B or compound C for 1 day. E-selectin and VCAM expression were then measured.

E-selectin [1] = test: IL-1β induced E-selectin expression in HUVEC; assay type: cell-based, human; conditions: 1 ng/ml IL-1β, 1 day
Method: To investigate the effect of HIF prolyl hydroxylase inhibition on IL-1β induced E-selectin expression, HUVECs were stimulated with 1 ng/ml IL-1β in the absence or presence of various concentrations of compound B or compound C for 1 day. E-selectin expression was then measured.

E-selectin [2] = test: TNF-α induced E-selectin expression in HUVEC; assay type: cell-based, human; conditions: 1 ng/ml TNF-α, various concentrations, 1 day
Source text: as §2

[3] = anemic rats, 40 mg/kg twice a week, week 6

O=C(O)CNC(=O)c1nc(Cl)c2ccccc2c1O [Compound A, [(1-Chloro-4-hydroxy-isoquinoline-3-carbonyl)-amino]-acetic acid]
intestinal expression of NRAMP2 (NRAMP2; [3]): increased expression of both NRAMP2 and sproutin in intestine | intestinal expression of mRNA for NRAMP2 (NRAMP2; control rats): increased intestinal expression of mRNA for NRAMP2 | intestinal expression of sproutin (sproutin; [3]): increased expression of both NRAMP2 and sproutin in intestine | intestinal expression of mRNA for sproutin (sproutin; control rats): increased intestinal expression | Ceruloplasmin (relative mRNA levels) (Ceruloplasmin; 4 hours): 1.16 | Ceruloplasmin (relative mRNA levels) (Ceruloplasmin; 8 hours): 1.39 | Ceruloplasmin (relative mRNA levels) (Ceruloplasmin; 16 hours): 1.22 | Ceruloplasmin (relative mRNA levels) (Ceruloplasmin; 24 hours): 2.45 | Ceruloplasmin (relative mRNA levels) (Ceruloplasmin; 48 hours): 1.44 | Ceruloplasmin (relative mRNA levels) (Ceruloplasmin; 72 hours): 2.10

O=C(O)CNC(=O)c1ncc2cc(Oc3ccccc3)ccc2c1O [Compound B, [(4-Hydroxy-7-phenoxy-isoquinoline-3-carbonyl)-amino]-acetic acid]
inhibition of TNF-α induced VCAM-1 expression (VCAM-1): does-dependent inhibition of TNF-α induced VCAM-1 expression | inhibition of IL-1β induced E-selectin expression (E-selectin [1]): dose-dependent inhibition of IL-1β induced E-selectin expression | inhibition of TNF-α induced E-selectin expression (E-selectin [2]): dose-dependent inhibition of TNF-α induced VCAM and E-selectin expression
